Results on 22 compounds are retold here after patent publication US9808445B2, “Factor IXa inhibitors” (Merck Sharp & Dohme Corp., priority 2014, dated 2017).

For this assay, the target named is human factor IXa (Homo sapiens (Human), UniProt P00740). Nature of the assay: Determination of inhibitory activity against factor IXa (fluorogenic substrate SPECTROFLUOR FIXa). Format: biochemical. The settings on record: Factor IXa enzyme assay human. The procedure: Inhibitory activity against factor IXa was tested using the substrate SPECTROFLUOR FIXa (american diagnostica inc.; 500 West Avenue, Stamford, Conn. 06902 USA; Pr. No. 299F) and human factor IXa (american diagnostica inc.; Pr. No. 449b). Test substances were dissolved in buffer A (50 mM α,α,α-tris (hydroxymethyl) methylamine (Tris), 100 mM NaCl, 5 mM CaCl2, 15% (v/v) ethylene glycol, pH 8.0) were mixed with factor IXa (0.1 μg/ml final concentration). The enzyme reaction was started by addition of SPECTROFLUOR FIXa (100 μM final concentration). After incubation for 60 minutes at room temperature, the reaction was stopped by the addition of 20% (v/v) acetic acid solution, and then the fluorescence value was measured (Excitation Wavelength: 355 nm, Emission Wavelength; 460 nm) in a microtiter plate reader (ARVO 1420 Multilabel Counter; PerkinElmer).
The IC50 was calculated from a dilution series of the test substance with the aid of the software, Symyx Assay Explorer (Symyx Technologies, Inc.).

human factor IXa, sequence (P00740 227-461): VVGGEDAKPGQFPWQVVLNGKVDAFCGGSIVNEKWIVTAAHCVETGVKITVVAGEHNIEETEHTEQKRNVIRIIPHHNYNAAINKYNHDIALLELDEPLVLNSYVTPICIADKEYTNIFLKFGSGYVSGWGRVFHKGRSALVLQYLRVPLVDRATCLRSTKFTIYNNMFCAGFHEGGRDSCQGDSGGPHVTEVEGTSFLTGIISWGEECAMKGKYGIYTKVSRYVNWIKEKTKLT
human factor IXa, sequence (P00740 47-191 partner): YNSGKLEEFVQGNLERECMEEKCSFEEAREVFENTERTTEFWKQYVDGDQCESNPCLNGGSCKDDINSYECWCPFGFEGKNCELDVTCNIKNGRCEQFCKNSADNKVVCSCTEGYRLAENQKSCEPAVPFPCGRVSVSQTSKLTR

In turn, `Nc1noc2c(N3C[C@@H]4CC[C@H]3[C@@H]4NC(=O)c3ccc(-c4ccc(=O)n(C(F)F)c4)cc3Cl)ncc(Cl)c12` (relative stereo) [Example 19, N-((1S*,4S*,7R*)-2-(3-Amino-4-chloroisoxazolo[5,4-c]pyridin-7-yl)-2-azabicyclo[2.2.1]heptan-7-yl)-2-chloro-4-(1-(difluoromethyl)-6-oxo-1,6-dihydropyridin-3-yl)benzamide] gave an IC50 of at most 100 nM.
To `Cc1ncn(-c2ccc(C(=O)NC3C4CCC3N(c3ncc(Cl)c5c(N)noc35)C4)c(Cl)c2)n1` (single isomer, unassigned) [Example 7.2, N-((1S*,4S*,7R*)-2-(3-Amino-4-chloroisoxazolo[5,4-c]pyridin-7-yl)-2-azabicyclo[2.2.1]heptan-7-yl)-2-chloro-4-(3-methyl-1H-1,2,4-triazol-1-yl)benzamide] belongs 100 to 1000 nM; to `Cn1cc(-c2ccc(C(=O)N[C@@H]3[C@H]4CC[C@@H]3N(c3nc(C#N)cc5c(N)noc35)C4)c(Cl)c2)ccc1=O` (relative stereo) [Example 25, N-((1S*,4S*,7R*)-2-(3-Amino-5-cyanoisoxazolo[5,4-c]pyridin-7-yl)-2-azabicyclo[2.2.1]heptan-7-yl)-2-chloro-4-(1-methyl-6-oxo-1,6-dihydropyridin-3-yl)benzamide], at most 100 nM.
`Cc1cc2c(N)noc2c(N2C[C@@H]3CC[C@H]2[C@@H]3NC(=O)c2ccc(-n3cc(CCO)nn3)cc2Cl)n1` (relative stereo) [Example 15, N-((1S*,4S*,7R*)-2-(3-Amino-5-methylisoxazolo[5,4-c]pyridin-7-yl)-2-azabicyclo[2.2.1]heptan-7-yl)-2-chloro-4-(4-(2-hydroxyethyl)-1H-1,2,3-triazol-1-yl)benzamide] yielded a concentration for half-maximal inhibition (IC50) of at most 100 nM.
On to `Nc1noc2c(N3C[C@@H]4CC[C@H]3[C@@H]4NC(=O)c3ccc(-c4ccc5nncn5c4)cc3Cl)ncc(Cl)c12` (relative stereo) [Example 20, 4-([1,2,4]Triazolo[4,3-a]pyridin-6-yl)-N-((1S*,4S*,7R*)-2-(3-amino-4-chloroisoxazolo[5,4-c]pyridin-7-yl)-2-azabicyclo[2.2.1]heptan-7-yl)-2-chlorobenzamide], for which the half-inhibitory concentration (IC50) was at most 100 nM.
To `Nc1noc2c(N3C[C@@H]4CC[C@H]3[C@@H]4NC(=O)c3ccc(-n4cnnc4)cc3)ncc(Cl)c12` (relative stereo) [Example 13, N-((1S*,4S*,7R*)-2-(3-Amino-4-chloroisoxazolo[5,4-c]pyridin-7-yl)-2-azabicyclo[2.2.1]heptan-7-yl)-4-(4H-1,2,4-triazol-4-yl)benzamide] belongs at most 100 nM; to `Cc1ncn(-c2ccc(C(=O)NC3C4CCC3N(c3ncc(Cl)c5c(N)noc35)C4)c(Cl)c2)n1` (single isomer, unassigned) [Example 7.1, N-((1S*,4S*,7R*)-2-(3-Amino-4-chloroisoxazolo[5,4-c]pyridin-7-yl)-2-azabicyclo[2.2.1]heptan-7-yl)-2-chloro-4-(3-methyl-1H-1,2,4-triazol-1-yl)benzamide], at most 100 nM.
`Nc1noc2c(N3C[C@@H]4CC[C@H]3[C@@H]4NC(=O)c3ccc(-n4cnc5ncccc54)cc3Cl)ncc(Cl)c12` (relative stereo) [Example 22, N-((1S*,4S*,7R*)-2-(3-Amino-4-chloroisoxazolo[5,4-c]pyridin-7-yl)-2-azabicyclo[2.2.1]heptan-7-yl)-2-chloro-4-(1H-imidazo[4,5-b]pyridin-1-yl)benzamide] displayed an IC50 of at most 100 nM.
`Nc1noc2c(N3C[C@@H]4CC[C@H]3[C@@H]4NC(=O)c3ccc(-n4cnnc4)cc3Cl)ccc(Cl)c12` (relative stereo) [Example 5, N-((1S*,4S*,7R*)-2-(3-Amino-4-chlorobenzo[d]isoxazol-7-yl)-2-azabicyclo[2.2.1]heptan-7-yl)-2-chloro-4-(4H-1,2,4-triazol-4-yl)benzamide] displayed a half-inhibitory concentration (IC50) of at most 100 nM.
To `Cc1cc2c(N)noc2c(N2CC3CCC2C3NC(=O)c2ccc(-n3cnc(C)n3)cc2Cl)n1` (single isomer, unassigned) [Example 11.1, N-((1S*,4S*,7R*)-2-(3-Amino-5-methylisoxazolo[5,4-c]pyridin-7-yl)-2-azabicyclo[2.2.1]heptan-7-yl)-2-chloro-4-(3-methyl-1H-1,2,4-triazol-1-yl)benzamide] belongs 100 to 1000 nM; to `Cn1ncn(-c2ccc(C(=O)N[C@@H]3[C@H]4CC[C@@H]3N(c3ncc(Cl)c5c(N)noc35)C4)c(Cl)c2)c1=O` (relative stereo) [Example 28, N-((1S*,4S*,7R*)-2-(3-Amino-4-chloroisoxazolo[5,4-c]pyridin-7-yl)-2-azabicyclo[2.2.1]heptan-7-yl)-2-chloro-4-(1-methyl-5-oxo-1,5-dihydro-4H-1,2,4-triazol-4-yl)benzamide], at most 100 nM; to `Nc1noc2c(N3C[C@@H]4CC[C@H]3[C@@H]4NC(=O)c3ccc(-c4ccnnc4)cc3Cl)ncc(Cl)c12` (relative stereo) [Example 12, N-((1S*,4S*,7R*)-2-(3-Amino-4-chloroisoxazolo[5,4-c]pyridin-7-yl)-2-azabicyclo[2.2.1]heptan-7-yl)-2-chloro-4-(pyridazin-4-yl)benzamide], at most 100 nM.
To `Cc1cc2c(N)noc2c(N2CC3CCC2C3NC(=O)c2ccc(-n3cnc(C)n3)cc2Cl)n1` (single isomer, unassigned) [Example 11.2, N-((1S*,4S*,7R*)-2-(3-Amino-5-methylisoxazolo[5,4-c]pyridin-7-yl)-2-azabicyclo[2.2.1]heptan-7-yl)-2-chloro-4-(3-methyl-1H-1,2,4-triazol-1-yl)benzamide] belongs at most 100 nM.
For `Cc1ncn(-c2ccc(C(=O)N[C@@H]3[C@H]4CC[C@@H]3N(c3nccc5c(N)noc35)C4)c(Cl)c2)n1` (relative stereo) [Example 2, N-((1S*,4S*,7R*)-2-(3-Aminoisoxazolo[5,4-c]pyridin-7-yl)-2-azabicyclo[2.2.1]heptan-7-yl)-2-chloro-4-(3-methyl-1H-1,2,4-triazol-1-yl)benzamide] the value was at most 100 nM.
`Cc1cc2c(N)noc2c(N2C[C@@H]3CC[C@H]2[C@@H]3NC(=O)c2ccc(-n3cnnc3C(F)(F)F)cc2Cl)n1` (relative stereo) [Example 26, N-((1S*,4S*,7R*)-2-(3-Amino-5-methylisoxazolo[5,4-c]pyridin-7-yl)-2-azabicyclo[2.2.1]heptan-7-yl)-2-chloro-4-(3-(trifluoromethyl)-4H-1,2,4-triazol-4-yl)benzamide] had an IC50 of at most 100 nM.
For `Nc1noc2c(N3C[C@@H]4CC[C@H]3[C@@H]4NC(=O)c3ccc(-n4cnnc4C(F)F)cc3Cl)ncc(Cl)c12` (relative stereo) [Example 16, N-((1S*,4S*,7R*)-2-(3-Amino-4-chloroisoxazolo[5,4-c]pyridin-7-yl)-2-azabicyclo[2.2.1]heptan-7-yl)-2-chloro-4-(3-(difluoromethyl)-4H-1,2,4-triazol-4-yl)benzamide] the value was at most 100 nM.
As for `Nc1noc2c(N3C[C@@H]4CC[C@H]3[C@@H]4NC(=O)c3ccc(-n4cnc(CCO)c4)cc3Cl)ncc(Cl)c12` (relative stereo) [Example 14, N-((1S*,4S*,7R*)-2-(3-Amino-4-chloroisoxazolo[5,4-c]pyridin-7-yl)-2-azabicyclo[2.2.1]heptan-7-yl)-2-chloro-4-(4-(2-hydroxyethyl)-1H-imidazol-1-yl)benzamide], the IC50 was at most 100 nM.
In turn, `Nc1noc2c(N3CC4CCC3C4NC(=O)c3ccc(-n4cncn4)cc3Cl)ncc(Cl)c12` (single isomer, unassigned) [Example 8.2, N-((1S*,4S*,7R*)-2-(3-Amino-4-chloroisoxazolo[5,4-c]pyridin-7-yl)-2-azabicyclo[2.2.1]heptan-7-yl)-2-chloro-4-(1H-1,2,4-triazol-1-yl)benzamide] gave an IC50 of 100 to 1000 nM.
For `Nc1noc2c(N3C[C@@H]4CC[C@H]3[C@@H]4NC(=O)c3ccc(-n4cnnc4)cc3Cl)ncc(Cl)c12` (relative stereo) [Example 6, N-((1S*,4S*,7R*)-2-(3-Amino-4-chloroisoxazolo[5,4-c]pyridin-7-yl)-2-azabicyclo[2.2.1]heptan-7-yl)-2-chloro-4-(4H-1,2,4-triazol-4-yl)benzamide] the value was at most 100 nM; for `Cc1ncn(-c2ccc(C(=O)N[C@@H]3[C@H]4CC[C@@H]3N(c3cc(Cl)cc5c(N)noc35)C4)c(Cl)c2)n1` (relative stereo) [Example 4, N-((1S*,4S*,7R*)-2-(3-Amino-5-chlorobenzo[d]isoxazol-7-yl)-2-azabicyclo[2.2.1]heptan-7-yl)-2-chloro-4-(3-methyl-1H-1,2,4-triazol-1-yl)benzamide], at most 100 nM.
To `Nc1noc2c(N3C[C@@H]4CC[C@H]3[C@@H]4NC(=O)c3ccc(-n4cnnc4)cc3Cl)cccc12` (relative stereo) [Example 1, N-((1S*,4S*, 7R*)-2-(3-Aminobenzo[d]isoxazol-7-yl)-2-azabicyclo[2.2.1]heptan-7-yl)-2-chloro-4-(4H-1,2,4-triazol-4-yl)benzamide] belongs at most 100 nM; to `Cn1nc(-c2ccc(C(=O)N[C@@H]3[C@H]4CC[C@@H]3N(c3ncc(Cl)c5c(N)noc35)C4)c(Cl)c2)ccc1=O` (relative stereo) [Example 24, N-((1S*,4S*,7R*)-2-(3-Amino-4-chloroisoxazolo[5,4-c]pyridin-7-yl)-2-azabicyclo[2.2.1]heptan-7-yl)-2-chloro-4-(1-methyl-6-oxo-1,6-dihydropyridazin-3-yl)benzamide], at most 100 nM.
